Where “and” joins values, the source holds several entries; their conditions need not be identical. Equal values may be shown once.
Columns and labels:
CIDP mice [1] = assay: Von Frey test (paw withdrawal threshold), CIDP mouse model; type: in vivo; settings: for Von Frey, paw withdrawal threshold (Mean ± SD): CIDP mice; for von Frey test, Paw withdrawal threshold, group MEAN: group mean of 4 animals; for von Frey test, Paw withdrawal threshold, Mean/animal: per animal; for von Frey test, Paw withdrawal threshold, Mean/animal / von Frey test, Paw withdrawal threshold, set 1 / von Frey test, Paw withdrawal threshold, set 2 / von Frey test, Paw withdrawal threshold, set 3: listed as hAAT; for von Frey test, Paw withdrawal threshold, set 1 / von Frey test, Paw withdrawal threshold, set 2 / von Frey test, Paw withdrawal threshold, set 3: raw data per animal
Protocol: (§1) C57BL/6 mice were received at 8 weeks of age and housed under controlled conditions for the duration of the study. Three groups of 4 animals each were assigned to the following subcutaneous treatments twice daily at 7:00 AM and 7:00 PM for 2 weeks, from 20 to 35 days after the start of disease induction: • Wild type (WT) mice receiving the vehicle, 0.9% NaCl (positive control) • CIDP mice receiving the vehicle, 0.9% NaCl (negative control) • CIDP mice receiving human AAT (AAT), 50 mg/kg per injection
(§2) Disease induction consisted in subcutaneous injection of mouse sciatic nerve homogenate in phosphate buffer saline (PBS)+Freund's adjuvant mixture at 10 mL/kg. For each treatment, 3 different body sites injections were performed. Control mice also received three subcutaneous injections of PBS+Freund's adjuvant at the same 3 different body sites.
(§3) On the first (Day 20) and last (Day 35) day of treatment, the neuromuscular and performance of animals was tested with a rotarod test, grip test and a sensory test using the Von Frey filament test, as well as sciatic nerve electrophysiology test. After the last treatment at Day 35, these tests were repeated, animals were sacrificed and the left sciatic nerve was sampled for histological evaluation of the number and size of […].

[2] = system: C3-PMP22 transgenic mice (CMT1A); assay: Sciatic nerve histology, CMT1A mouse study (50 mg/kg twice daily); type: in vivo; settings: 8 weeks old
Protocol: Animals were split in 3 groups (wild-type control (subcutaneous 0.9% NaCl), CMT1A-vehicle (subcutaneous 0.9% NaCl), CMT1A-human alpha-1 antitrypsin (subcutaneous, twice daily, 50 mg/kg per injection)) of 3 mice each (3 weeks old males of 18±2.5 g at the beginning of study) and all went through the following protocol after 7 days of acclimation on site.
On the first and last day of treatment, the neuromuscular performance of animals was tested with a rotarod test, grip test and sciatic nerve electrophysiology test. After the last treatment at 8 weeks, these tests were repeated, and animals were sacrificed and the left sciatic nerve was sampled for histological evaluation of the number and size of […].

[3] = system: CMT1A mice B6.Cg-Tg(PMP22)C3Fbas/J; assay: Sciatic nerve electrophysiology (CMAP, NCV), CMT mice treated with AAT 180 mg/kg/day sc; type: in vivo, mouse
Protocol: CMT MOUSE MODEL: Non-humanized CMT1A mice B6.Cg-Tg(PMP22)C3Fbas/J (three copies of the PMP22 gene), three groups of 8 animals each.
DOSAGE: 180 mg/kg/day non-clinical grade AAT (Sigma)
ADMINISTRATION: Subcutaneous (SC) (bi-daily injection of 90 mg/kg)
(§4) Animals were received at 6 weeks of age and housed under controlled conditions for the duration of the study. The study comprised two groups of 8 transgenic mice (CMT mice) each and one group of 8 age matched wild type (WT) C57B16 mice, serving as positive control. Animals were assigned to the following subcutaneous treatments twice daily at 7:00 AM and 7:00 PM for 2 weeks, starting from 8 weeks and up to 10 weeks of age: • Wild-type (WT, no disease) mice receiving vehicle, 0.9% NaCl (positive control) • CMT1A mice receiving vehicle, 0.9% NaCl (negative control) • CMT1A mice receiving AAT at 90 mg/kg per injection (daily dose 180 mg/kg)
(§5) The efficacy parameters included: • neuromuscular performance (rotarod latency to fall and grip strength test), • sciatic nerve electrophysiology (CMAP amplitude and NCV) • cytokine (IL-6 and TNFα), as well as NfL analysis • sciatic nerve histology (number of axons and axonal diameter),
On the first day of treatment (Day 1), the neuromuscular and performance of animals was tested with a rotarod test and a grip strength test, as well as sciatic nerve electrophysiology test, which measured the compound muscle action potential (CMAP) and the nerve conduction velocity (NCV). After the last treatment on Day 15, these tests were repeated. Animals were then left untreated for 2 additional weeks to evaluate the duration of the treatment effect. Following the 2-week treatment-free period until 12 weeks of age (Day 30), the behavioural and electrophysiological tests were repeated.

plasma TNFα = assay: Plasma TNFα, CMT mice treated with AAT 180 mg/kg/day sc; type: in vivo, mouse
Excerpt: as §4, §5
As supportive information for the mode of action of AAT in CMT, plasma concentration of interleukin 6 (IL-6) and TNFα were measured at Day 1 (8 weeks), Day 15 (10 weeks) and Day 30 (12 weeks). At the same timepoints, plasma levels of the biomarker of nerve damage, NfL were determined.

[4] = system: CMT1A mice B6.Cg-Tg(PMP22)C3Fbas/J; assay: Sciatic nerve electrophysiology (CMAP, NCV), CMT mice treated with AAT 180 mg/kg/day sc; type: in vivo, mouse; settings: 6 weeks old, CMT + hAAT
CIDP mice [5] = assay: Sciatic nerve electrophysiology (CMAP, NCV), CIDP mouse model; type: in vivo; settings: for Compound muscle action potential (Mean ± SD) / Nerve conduction velocity (Mean ± SD): CIDP mice; for Electrophysiology, Amplitude / Electrophysiology, Conduction velocity / Electrophysiology, T1 distal / Electrophysiology, T2 proximal: per mouse, listed as hAAT
Protocol: as §1, §2, §3

[6] = CIDP + AAT 50 mg/kg sc twice daily, Day 35
[7] = Day 35, AAT 50 mg/kg sc twice daily
[8] = CMT1A + AAT, 50 mg/kg twice daily sc
[9] = CMT1A mice, AAT 50 mg/kg sc twice daily
[10] = 8 weeks old (baseline, Day 1), CMT1A + AAT
[11] = 8 weeks old, CMT + hAAT 180 mg/kg/day SC, 8 mice
[12] = 8 weeks old, CMT + hAAT 180 mg/kg/day SC, individual mouse
[13] = 10 weeks old (Day 15, after 2 weeks AAT 90 mg/kg sc twice daily)
[14] = 12 weeks of age, after 2-week treatment-free period
[15] = 12 weeks old (Day 30, after 2-week treatment-free period)
[16] = CMT mice, AAT 90 mg/kg sc twice a day, 8 to 10 weeks of age, end of treatment

alpha1-antitrypsin (AAT) protein
threshold of paw withdrawal compared to the vehicle treated group (CIDP mice [1]; [6]): increased
Von Frey, paw withdrawal threshold (Mean ± SD) (CIDP mice [1]; Day 20 (baseline)): 3.16 ± 0.95 grams
Von Frey, paw withdrawal threshold (Mean ± SD) (CIDP mice [1]; [7]): 5.71 ± 0.41 grams
von Frey test, Paw withdrawal threshold, group MEAN (CIDP mice [1]; Baseline (Day 20)): 3.16 grams
von Frey test, Paw withdrawal threshold, group MEAN (CIDP mice [1]; Day 35): 5.80 grams
von Frey test, Paw withdrawal threshold, Mean/animal (CIDP mice [1]; Baseline (Day 20)): 4.30 grams and 2.10 grams and 2.74 grams and 3.48 grams
von Frey test, Paw withdrawal threshold, Mean/animal (CIDP mice [1]; Day 35): 5.60 grams and 5.24 grams and 6.21 grams and 6.14 grams
von Frey test, Paw withdrawal threshold, set 1 (CIDP mice [1]; Baseline (Day 20)): 4.6 grams and 2.1 grams and 3.3 grams and 4.5 grams
von Frey test, Paw withdrawal threshold, set 2 (CIDP mice [1]; Baseline (Day 20)): 2.4 grams and 1.8 grams and 2.1 grams and 2.2 grams
von Frey test, Paw withdrawal threshold, set 3 (CIDP mice [1]; Baseline (Day 20)): 6.0 grams and 2.4 grams and 2.8 grams and 3.8 grams
von Frey test, Paw withdrawal threshold, set 1 (CIDP mice [1]; Day 35): 5.3 grams and 5.9 grams and 7.7 grams and 5.1 grams
von Frey test, Paw withdrawal threshold, set 2 (CIDP mice [1]; Day 35): 5.1 grams and 3.7 grams and 5.3 grams and 7.0 grams
von Frey test, Paw withdrawal threshold, set 3 (CIDP mice [1]; Day 35): 6.4 grams and 6.1 grams and 5.7 grams and 6.3 grams
axonal diameter compared to the vehicle treated group [2, 8]: significant increase
g-ratio compared to the vehicle treated group [2, 8]: decrease
total number of axons per surface compared to the vehicle group [2, 8]: Slight increase
Sciatic nerve histology, Axonal diameter (Mean ± SEM) [2, 9]: 2.53 ± 0.15 ^††† μm
Sciatic nerve histology, Axons/100 μm^2 (Mean ± SEM) [2, 9]: 39.33 ± 4.81
Sciatic nerve histology, g-ratio (Mean ± SEM) [2, 9]: 0.63 ± 0.009 ^†††
Conduction velocity, group MEAN ([3]; 6 weeks old, CMT + hAAT, 8 mice): 26.266 m/s
Compound muscle action potential (Mean ± SD) [3, 10]: 3.76 ± 0.50 mV
Nerve conduction velocity (Mean ± SD) [3, 10]: 15.96 ± 1.54 m/s
Amplitude, group MEAN [3, 11]: 5.492 mV
Conduction velocity, group MEAN [3, 11]: 16.946 m/s
Amplitude [3, 12]: 4.874 mV and 5.376 mV and 5.322 mV and 9.084 mV and 6.115 mV and 3.753 mV and 5.277 mV and 4.139 mV
Conduction velocity [3, 12]: 18.707 m/s and 16.462 m/s and 10.029 m/s and 19.200 m/s and 17.615 m/s and 9.648 m/s and 25.446 m/s and 18.460 m/s
T1 distal [3, 12]: 3.916 ms and 3.259 ms and 3.449 ms and 4.291 ms and 3.773 ms and 8.247 ms and 7.467 ms and 11.449 ms
T2 proximal [3, 12]: 4.718 ms and 4.170 ms and 4.945 ms and 5.072 ms and 4.624 ms and 9.802 ms and 8.057 ms and 12.262 ms
Compound muscle action potential (Mean ± SD) [3, 13]: 5.41 ± 0.71 mV
Nerve conduction velocity (Mean ± SD) [3, 13]: 21.47 ± 6.07 m/s
NCV vs untreated group [3, 14]: non-significantly different
CMAP vs untreated CMT animals ([3]; 12 weeks of age, after 2-week treatment-free period, P<0.05): significantly higher
Compound muscle action potential (Mean ± SD) [3, 15]: 2.94 ± 0.65 mV
Nerve conduction velocity (Mean ± SD) [3, 15]: 10.50 ± 1.73 m/s
compound muscle action potential amplitude vs CMT mice not treated with AAT [3, 16]: significant increase
nerve conduction velocity vs CMT mice not treated with AAT [3, 16]: significant increase
Plasma TNFα (Mean ± SD) (plasma TNFα; [10]): 9.80 ± 2.25 pg/mL
Plasma TNF-α concentration, group Mean (plasma TNFα; 8 weeks old, CMT + hAAT 180 mg/kg/day SC, 8 animals): 6.94 pg/mL
Plasma TNF-α concentration (plasma TNFα; 8 weeks old, CMT + hAAT 180 mg/kg/day SC, individual animal): 7.04 pg/mL and 7.89 pg/mL and 7.91 pg/mL and 5.44 pg/mL and 7.90 pg/mL and 5.34 pg/mL and 8.02 pg/mL and 5.95 pg/mL
Plasma TNFα (Mean ± SD) (plasma TNFα; [13]): 6.55 ± 2.11 pg/mL
positive effect on TNFα plasma levels (plasma TNFα; [14]): remained significant
Plasma TNFα (Mean ± SD) (plasma TNFα; [15]): 11.61 ± 1.00 pg/mL
plasma levels of TNFα (plasma TNFα; CMT mice, AAT 90 mg/kg sc twice a day, P<0.0001): reduced
Amplitude, group MEAN ([4]; 8 mice): 6.628 mV
Amplitude ([4]; individual mouse): 7.828 mV and 3.009 mV and 5.770 mV and 5.919 mV and 7.925 mV and 8.742 mV and 6.803 mV and 7.028 mV
Conduction velocity ([4]; individual mouse): 31.949 m/s and 34.989 m/s and 30.328 m/s and 19.190 m/s and 18.114 m/s and 20.530 m/s and 26.247 m/s and 28.783 m/s
T1 distal ([4]; individual mouse): 7.416 ms and 5.701 ms and 12.428 ms and 5.913 ms and 6.041 ms and 3.664 ms and 4.204 ms and 3.385 ms
T2 proximal ([4]; individual mouse): 7.885 ms and 6.130 ms and 12.922 ms and 6.694 ms and 6.869 ms and 4.395 ms and 4.775 ms and 3.906 ms
NCV compared to the vehicle treated group (CIDP mice [5]; CIDP + AAT 50 mg/kg sc twice daily): increase
CMAP amplitude compared to the CIDP+vehicle treated group (CIDP mice [5]; [6]): increase
Compound muscle action potential (Mean ± SD) (CIDP mice [5]; Day 20 (baseline)): 3.73 ± 0.42 mV
Nerve conduction velocity (Mean ± SD) (CIDP mice [5]; Day 20 (baseline)): 13.10 ± 4.49 m/s
Compound muscle action potential (Mean ± SD) (CIDP mice [5]; [7]): 4.56 ± 0.76 mV
Nerve conduction velocity (Mean ± SD) (CIDP mice [5]; [7]): 16.85 ± 2.43 m/s
Electrophysiology, Amplitude, group MEAN (CIDP mice [5]; Day 20): 3.731 mV
Electrophysiology, Conduction velocity, group MEAN (CIDP mice [5]; Day 20): 13.098 m/s
Electrophysiology, Amplitude, group MEAN (CIDP mice [5]; Day 35): 4.558 mV
Electrophysiology, Conduction velocity, group MEAN (CIDP mice [5]; Day 35): 16.851 m/s
Electrophysiology, Amplitude (CIDP mice [5]; Day 20): 3.734 mV and 3.562 mV and 3.318 mV and 4.308 mV
Electrophysiology, Conduction velocity (CIDP mice [5]; Day 20): 16.096 m/s and 11.057 m/s and 7.775 m/s and 17.463 m/s
Electrophysiology, T1 distal (CIDP mice [5]; Day 20): 2.673 ms and 3.177 ms and 2.864 ms and 3.114 ms
Electrophysiology, T2 proximal (CIDP mice [5]; Day 20): 3.605 ms and 4.533 ms and 4.793 ms and 3.973 ms
Electrophysiology, Amplitude (CIDP mice [5]; Day 35): 3.490 mV and 5.146 mV and 5.068 mV and 4.527 mV
Electrophysiology, Conduction velocity (CIDP mice [5]; Day 35): 16.007 m/s and 16.112 m/s and 14.881 m/s and 20.402 m/s
Electrophysiology, T1 distal (CIDP mice [5]; Day 35): 4.089 ms and 3.902 ms and 4.177 ms and 3.970 ms
Electrophysiology, T2 proximal (CIDP mice [5]; Day 35): 5.026 ms and 4.833 ms and 5.185 ms and 4.705 ms

— patent publication US20260028390A1, “ALPHA1-ANTITRYPSIN FOR USE IN THE TREATMENT OF DISEASES OR DISORDERS OF THE NERVOUS SYSTEM SUCH AS CHRONIC INFLAMMATORY DEMYELINATING POLYNEUROPATHY” (Ageronix SA, priority 2022, published 2026)
